In US20190038714A1, “ANTI-INFLAMMATORY COMPOSITION COMPRISING CLAVASPIRIN PEPTIDE ANALOGUE AS EFFECTIVE INGREDIENT” (INDUSTRY-ACADEMIC COOPERATION FOUNDATION, CHOSUN UNIVERSITY, priority 2015, published 2019):
Where two headings read alike, the source gives them in different places.

Assays:
[1] = test system: S. aureus MRSA 3126; details: 24 hours at 37° C.
[2] = test system: S. aureus MRSA 0027; details: 24 hours at 37° C.
[3] = test system: S. aureus MRSA 5157; details: 24 hours at 37° C.
[4] = test system: S. aureus MRSA 1635; details: 24 hours at 37° C.
[5] = test system: S. aureus MRSA 4761; details: 24 hours at 37° C.
[6] = test system: S. aureus MRSA 5159; details: 24 hours at 37° C.
[7] = test system: S. aureus MRSA 3-359; details: 24 hours at 37° C.
[8] = test system: S. aureus MRSA 2-122; details: 24 hours at 37° C.
[9] = test system: S. aureus MRSA 1630; details: 24 hours at 37° C.
[10] = test system: S. aureus MRSA 1870; details: 24 hours at 37° C.
[11] = test system: S. aureus MRSA 3511; details: 24 hours at 37° C.
[12] = test system: S. aureus MRSA 5156; details: 24 hours at 37° C.
[13] = test system: S. aureus MRSA 3518; details: 24 hours at 37° C.
[14] = test system: S. aureus; experiment: microbe, parasite or virus in culture; details: Staphylococcus aureus, 24 h
[15] = test system: S. aureus MRSA 3126; experiment: microbe, parasite or virus in culture; details: Staphylococcus aureus, 24 h
[16] = test system: S. aureus MRSA 0027; experiment: microbe, parasite or virus in culture; details: Staphylococcus aureus, 24 h
[17] = test system: S. aureus MRSA 5157; experiment: microbe, parasite or virus in culture; details: Staphylococcus aureus, 24 h
[18] = test system: S. aureus MRSA 1635; experiment: microbe, parasite or virus in culture; details: Staphylococcus aureus, 24 h
[19] = test system: S. aureus MRSA 4761; experiment: microbe, parasite or virus in culture; details: Staphylococcus aureus, 24 h
[20] = test system: S. aureus MRSA 5159; experiment: microbe, parasite or virus in culture; details: Staphylococcus aureus, 24 h
[21] = test system: S. aureus MRSA 3-359; experiment: microbe, parasite or virus in culture; details: Staphylococcus aureus, 24 h
[22] = test system: S. aureus MRSA 2-122; experiment: microbe, parasite or virus in culture; details: Staphylococcus aureus, 24 h
[23] = test system: S. aureus MRSA 1630; experiment: microbe, parasite or virus in culture; details: Staphylococcus aureus, 24 h
[24] = test system: S. aureus MRSA 1870; experiment: microbe, parasite or virus in culture; details: Staphylococcus aureus, 24 h
[25] = test system: S. aureus MRSA 3511; experiment: microbe, parasite or virus in culture; details: Staphylococcus aureus, 24 h
[26] = test system: S. aureus MRSA 5156; experiment: microbe, parasite or virus in culture; details: Staphylococcus aureus, 24 h
[27] = test system: S. aureus MRSA 3518; experiment: microbe, parasite or virus in culture; details: Staphylococcus aureus, 24 h
[28] = test system: S. aureus; details: 24 hours at 37° C.

Measured: MIC

CC[C@H](C)[C@H](NC(=O)CN)C(=O)NCC(=O)N[C@@H](C)C(=O)N[C@H](C(=O)N[C@@H](CC(C)C)C(=O)N[C@@H](CCCCN)C(=O)N[C@H](C(=O)N[C@@H](CC(C)C)C(=O)N[C@H](C(=O)N[C@H](C(=O)NCC(=O)N[C@@H](CC(C)C)C(=O)N1CCC[C@H]1C(=O)N[C@@H](C)C(=O)N[C@@H](CC(C)C)C(=O)N[C@H](C(=O)N[C@@H](CO)C(=O)N[C@@H](Cc1c[nH]c2ccccc12)C(=O)N[C@H](C(=O)N[C@@H](CCCCN)C(=O)N[C@@H](CCCNC(=N)N)C(=O)N[C@@H](CCCCN)C(=O)N[C@@H](CCCNC(=N)N)C(=O)N[C@@H](CCC(N)=O)C(=O)N[C@@H](CCC(N)=O)C(N)=O)[C@@H](C)CC)[C@@H](C)CC)[C@@H](C)O)[C@@H](C)O)C(C)C)C(C)C [Melittin, melittin]
2 µM: [1] | [2] | [3] | [4]
8 µM: [6]
4 µM: [5] | [7] | [8] | [9] | [10] | [11] | [12] | [13]

CC[C@H]1OC(=O)[C@H](C)[C@@H](O[C@H]2C[C@@](C)(OC)[C@@H](O)[C@H](C)O2)[C@H](C)[C@@H](O[C@@H]2O[C@H](C)C[C@H](N(C)C)[C@H]2O)[C@](C)(O)C[C@@H](C)C(=O)[C@H](C)[C@@H](O)[C@]1(C)O [Erythromycin, erythromycin]
1 µM: [14]
128 µM: [15]
> 256 µM: [16] | [18] | [19] | [21] | [22] | [23] | [24] | [25] | [26] | [27]
16 µM: [17] | [20]

gentamycin
>256 µM: [4] | [11] | [12] | [13]
16 µM: [3] | [6] | [10]
128 µM: [8]
1 µM: [28]
64 µM: [2] | [7] | [9]
32 µM: [1] | [5]
